Key:
[1] = system: rat liver ACAT (acylCoa:cholesterol acyltransferase); experiment: In vitro inhibition of ACAT activity, rat liver microsomal fraction; type: biochemical; conditions: rat liver microsomes, concentration 2 μM, versus enzyme activity in 1% dimethylsulfoxide
Method: (§1) The biological activity of the substances was evaluated based on the in vitro inhibition of acylCoa:cholesterol acyltransferase (ACAT) activity. The enzyme was obtained from the microsomal fraction of rat liver cells and rabbit intestinal mucosa of animals fed with cholesterol. The substrates for the enzyme reaction included exogenous oleoyl co-enzyme A and endogenous cholesterol. ^14C-oleoyl co-enzyme A conversion to ^14C-cholesteryl oleate was monitored. From the mixture of extracted lipids, cholesteryl oleate was separated using thin-layer chromatography, and was quantified radiometrically. ACAT specific activity was expressed as the amount of cholesteryl oleate formed per minute per mg microsomal protein.
(§2) Efficiency was calculated as compared to enzyme activity measured in the presence of 1% dimethylsulfoxide used as the solvent to prepare solutions of the substances tested.

[2] = system: rabbit intestinal mucosa ACAT (acylCoa:cholesterol acyltransferase); experiment: In vitro inhibition of ACAT activity, rabbit intestinal mucosa microsomal fraction; type: biochemical; conditions: rabbit intestinal mucosa microsomes, concentration 2 μM, versus enzyme activity in 1% dimethylsulfoxide
Method: as §1, §2

Row | SMILES | Efficiency (%) liver (ACAT inhibition) [1] [%] | Efficiency (%) mucosa (ACAT inhibition) [2] [%]
1 | O=C(Nc1ccc(Oc2ccc([N+](=O)[O-])cc2)cc1)Nc1c(F)cccc1F [Example 4, 1-(2,6-Difluorophenyl)-3-((4′-nitrophenoxy)-phenyl)-urea] | 0 | 42
2 | Cc1ccc(NC(=O)Nc2ccc(Sc3ccc([N+](=O)[O-])cc3)cc2)cc1 [Example 38, 1-(4-Methylphenyl)-3-((4′-nitrophenylthio)-phenyl)-urea] | 21 | 32
3 | Cc1ccccc1NC(=O)Nc1ccc(Sc2ccc([N+](=O)[O-])cc2)cc1 [Example 37, 1-(2-Methylphenyl)-3-((4′-nitrophenylthio)-phenyl)-urea] | 27 | 31
4 | O=C(Nc1ccc(Oc2ccc([N+](=O)[O-])cc2)cc1)Nc1cccc(Cl)c1Cl [Example 6, 1-(2,3-Dichlorohenyl)-3-((4′-nitrophenoxy)-phenyl)-urea] | 58 | 51
5 | O=C(Nc1ccc(Sc2ccc([N+](=O)[O-])cc2)cc1)Nc1cc(F)ccc1F [Example 28, 1-(2,5-Difluorophenyl)-3-((4′-nitrophenylthio)-phenyl)-urea] | 0 | 16
6 | O=C(Nc1ccc(Sc2ccc([N+](=O)[O-])cc2)cc1)Nc1cccc(Cl)c1Cl [Example 32, 1-(2,3-Dichlorophenyl)-3-((4′-nitrophenylthio)-phenyl)-urea] | 0 | 0
7 | O=C(Nc1ccc(Sc2ccc([N+](=O)[O-])cc2)cc1)Nc1ccc([N+](=O)[O-])cc1 [Example 24, 1-(4-Nitrophenyl)-3-((4′-nitrophenylthio)-phenyl)-urea] | 0 | 34
8 | Cc1cccc(C)c1NC(=O)Nc1ccc(Oc2ccc([N+](=O)[O-])cc2)cc1 [Example 12, 1-(2,6-Dimethylphenyl)-3-((4′-nitrophenoxy)-phenyl)-urea] | 41 | 65
9 | O=C(Nc1ccncc1)Nc1ccc(Oc2ccc([N+](=O)[O-])cc2)cc1 [Example 20] | 11 | 17
10 | O=C(Nc1ccc(Sc2ccc([N+](=O)[O-])cc2)cc1)Nc1c(Cl)cccc1Cl [Example 34, 1-(2,6-Dichlorophenyl)-3-((4′-nitrophenylthio)-phenyl)-urea] | 15 | 21
11 | O=C(Nc1ccc(Oc2ccc([N+](=O)[O-])cc2)cc1)Nc1ccc2ccccc2c1 [Example 22] | 0 | 12
12 | O=C(Nc1ccc(Oc2ccc([N+](=O)[O-])cc2)cc1)Nc1ccc(F)cc1F [Example 2] | 37 | 55
13 | Nc1ccc(Sc2ccc(NC(=O)Nc3ccc(F)cc3F)cc2)cc1 [Example 56, 1-(2,4-Difluorophenyl)-3-((4′-aminophenylthio)-phenyl)-urea] | 22 | 25
14 | O=C(Nc1ccc(Sc2ccc([N+](=O)[O-])cc2)cc1)Nc1cc(Cl)cc(Cl)c1 [Example 36, 1-(3,5-Dichlorophenyl)-3-((4′-nitrophenylthio)-phenyl)-urea] | 0 | 0
15 | Cc1cc(C)cc(NC(=O)Nc2ccc(Sc3ccc([N+](=O)[O-])cc3)cc2)c1 [Example 41, 1-(3,5-Dimethylphenyl)-3-((4′-nitrophenylthio)-phenyl)-urea] | 18 | 27
16 | O=C(Nc1ccncc1)Nc1ccc(Sc2ccc([N+](=O)[O-])cc2)cc1 [Example 48, 1-(4-Pyridyl)-3-((4′-nitrophenylthio)-phenyl)-urea] | 53 | 35
17 | O=C(Nc1ccc(Oc2ccc([N+](=O)[O-])cc2)cc1)NC12CC3CC(CC(C3)C1)C2 [Example 23] | 43 | 58
18 | O=C(Nc1ccc(Oc2ccc([N+](=O)[O-])cc2)cc1)Nc1cc(Cl)cc(Cl)c1 [Example 8, 1-(3,5-Dichlorophenyl)-3-((4′-nitrophenoxy)-phenyl)-urea] | 0 | 0
19 | O=C(Nc1ccc(Oc2ccc([N+](=O)[O-])cc2)cc1)Nc1c(Cl)cccc1Cl [Example 7, 1-(2,6-Dichlorophenyl)-3-((4′-nitrophenoxy)-phenyl)-urea] | 20 | 25
20 | Cc1ccccc1NC(=O)Nc1ccc(Oc2ccc([N+](=O)[O-])cc2)cc1 [Example 9] | 0 | 0
21 | O=C(Nc1ccc(Sc2ccc([N+](=O)[O-])cc2)cc1)Nc1c(F)cccc1F [Example 29, 1-(2,6-Difluorophenyl)-3-((4′-nitrophenylthio)-phenyl)-urea] | 11 | 25
